Where two headings read alike, the source gives them in different places.
Columns and labels:
Format in all cases: in vivo
[1] = system: Cotton Aphid (Aphis gossypii); test: Cotton aphid foliar spray assay on squash; details: 72 h, read-out: % Control of cotton aphid on squash (foliar spray)
Description: Squash with fully expanded cotyledon leaves were trimmed to one cotyledon per plant and infested with cotton aphid (wingless adult and nymph) 1 day prior to chemical application. Each plant was examined before chemical application to ensure proper infestation (ca. 30-70 aphids per plant). Compounds (2 mg) were dissolved in 2 ml of acetone:methanol (1:1) solvent, forming stock solutions of 1000 ppm. The stock solutions were then diluted with a diluent consisting 80 parts of 0.025% Tween 20 in H2O and 20 parts of acetone:methanol (1:1). A hand-held Devilbiss sprayer was used to apply the test solutions until runoff to both sides of the squash cotyledon leaves. Four plants (4 replications) were used for each concentration of each compound. Reference plants (solvent check) were sprayed with the diluent only. Treated plants were held in a holding room for 3 days at approximately 23° C. and 40% RH before the number of live aphids on each plant was recorded. Insecticidal activity was measured by Corrected % Control using Abbott's correction formula and presented in Table 1: Corrected % Control=100*(X−Y)/X • where X=No. of live aphids on solvent check plants • Y=No. of live aphids on treated plants

[2] = system: Green Peach Aphid (Myzus persicae); test: Green peach aphid foliar spray assay on cabbage; details: 72 h, read-out: % Control at ppm, foliar spray, green peach aphid on cabbage
Description: Cabbage seedlings grown in 3-inch pots, with 2-3 small (3-5 cm) true leaves, were used as test substrate. The seedlings were infested with 20-50 green peach aphids (wingless adult and nymph) 2-3 days prior to chemical application. Four seedlings were used for each treatment. Compounds (2 mg) were dissolved in 2 ml of acetone:methanol (1:1) solvent, forming stock solutions of 1000 ppm. The stock solutions were then diluted with a diluent consisting 80 parts of 0.025% Tween 20 in […] and 20 parts of acetone:methanol (1:1). A hand-held Devilbiss sprayer was used for spraying the test solutions to both sides of cabbage leaves until runoff. Reference plants (solvent check) were sprayed with the diluent only. Treated plants were held in a holding room for three days at approximately 23° C. and 40% RH prior to grading. Evaluation was conducted by counting the number of live aphids per plant under a microscope. Insecticidal activity was measured by using Abbott's correction formula: Corrected % Control=100*(X−Y)/X • where X=No. of live aphids on solvent check plants • Y=No. of live aphids on treated plants The Corrected % Control values from assays are given in Table 2.

[3] = system: Brown Planthopper (Nilaparvata lugens); test: Brown planthopper foliar spray assay on rice
Description: (§1) A foliar spray assay and a root-uptake systemic assay were performed on both brown planthopper and green leafhopper. Four-week-old rice seedlings were submerged in 3-cm depth of water in the bottom portion (high 5 cm, diameter 3 cm) of a 2-part glass cylinder (high 18 cm, diameter 3 cm). A metal screen was used to hold the seedlings within the bottom portion. Scotch tape was used to bind the two portions of the cylinder after setting up the seedlings. A metal cap was used to cover the cylinder. There were 4 cylinders for each treatment. The test compound was dissolved in acetone to make a 10,000 ppm stock solution. For the foliar spray assay, this stock solution was diluted with water to make 10, 2.5, 0.31, 0.08 and 0.02 ppm test solutions. A volume of 0.5 ml of a test solution or solvent blank as check was sprayed into the glass cylinder. For systemic test, the stock solution was incorporated at final test concentrations of 10, 2.5, 0.31, 0.08 and 0.02 ppm in the water in which rice seedlings were submerged. In both foliar spray and systemic tests, five laboratory-reared 3rd instar nymphs of brown planthopper or green leafhopper were introduced into each cylinder 3 hr after insecticide application. The treated test units were kept in a growth chamber with conditions set as followings: Temperature 28±0.5° C.; Relative humidity 70±0.5%; Photoperiod […].

[4] = system: Green Leafhopper (Nephotettix sp.); test: Green leafhopper foliar spray assay on rice
Description: as §1

[5] = system: Brown Planthopper (Nilaparvata lugens); test: Brown planthopper root-uptake systemic assay on rice
Description: as §1

[6] = system: Green Leafhopper (Nephotettix sp.); test: Green leafhopper root-uptake systemic assay on rice
Description: as §1

Structure (SMILES): CS(=O)(Cc1ccc(C(F)(F)F)nc1)=NC#N (centres unmarked) [Compound 1, [(6-trifluoromethylpyridin-3-yl)methyl](methyl)-oxido-λ^4-sulfanylidenecyanamide]
- pest or weed control at 0.049 ppm ([1]; 0.049 ppm, 3 days after spray): 90 to 100%
- pest or weed control at 0.195 ppm ([1]; 0.195 ppm, 3 days after spray): 90 to 100%
- pest or weed control at 0.781 ppm ([1]; 0.781 ppm, 3 days after spray): 90 to 100%
- pest or weed control at 3.13 ppm ([1]; 3.13 ppm, 3 days after spray): 90 to 100%
- pest or weed control at 0.781 ppm ([2]; 0.781 ppm, 3 days after spray): < 50%
- pest or weed control at 3.125 ppm ([2]; 3.125 ppm, 3 days after spray): 90 to 100%

Structure (SMILES): N#CN=S1(=O)CCCC1c1ccc(C(F)(F)F)nc1 (centres unmarked) [Compound 3, 2-(6-trifluoromethylpyridin-3-yl)-1-oxidotetrahydro-1H-1λ^4-thien-1-ylidenecyanamide]
- pest or weed control at 0.049 ppm ([1]; 0.049 ppm, 3 days after spray): 90 to 100%
- pest or weed control at 0.195 ppm ([1]; 0.195 ppm, 3 days after spray): 90 to 100%
- pest or weed control at 0.781 ppm ([1]; 0.781 ppm, 3 days after spray): 90 to 100%
- pest or weed control at 3.13 ppm ([1]; 3.13 ppm, 3 days after spray): 90 to 100%
- pest or weed control at 0.195 ppm ([2]; 0.195 ppm, 3 days after spray): < 50%
- pest or weed control at 0.781 ppm ([2]; 0.781 ppm, 3 days after spray): < 50%
- pest or weed control at 3.125 ppm ([2]; 3.125 ppm, 3 days after spray): 60 to 69%

Structure (SMILES): CC(c1ccc(C(F)(F)Cl)nc1)S(C)(=O)=NC#N (centres unmarked) [Compound 4, (1-{6-[chloro(difluoro)methyl]pyridin-3-yl}ethyl)(methyl)-oxido-λ^4-sulfanylidenecyanamide]
- % Control at ppm against brown planthopper ([3]; 0.02 ppm): F (Less than 50)
- % Control at ppm against brown planthopper ([3]; 0.08 ppm): E (50-59)
- % Control at ppm against brown planthopper ([3]; 0.31 ppm): B (80-89)
- % Control at ppm against brown planthopper ([3]; 2.5 ppm): A (90-100)
- % Control at ppm against brown planthopper ([3]; 10 ppm): A (90-100)
- % Control at ppm against green leafhopper ([4]; 0.02 ppm): E (50-59)
- % Control at ppm against green leafhopper ([4]; 0.08 ppm): B (80-89)
- % Control at ppm against green leafhopper ([4]; 0.31 ppm): A (90-100)
- % Control at ppm against green leafhopper ([4]; 2.5 ppm): A (90-100)
- % Control at ppm against green leafhopper ([4]; 10 ppm): A (90-100)
- pest or weed control at 0.049 ppm [1]: 90 to 100%
- pest or weed control at 0.195 ppm [1]: 90 to 100%
- pest or weed control at 0.781 ppm [1]: 90 to 100%
- pest or weed control at 3.13 ppm [1]: 90 to 100%
- pest or weed control at 0.195 ppm [2]: 80 to 89%
- pest or weed control at 0.781 ppm [2]: 90 to 100%
- pest or weed control at 3.125 ppm [2]: 90 to 100%
- % Control at ppm against brown planthopper ([5]; 0.02 ppm in water): F (Less than 50)
- % Control at ppm against brown planthopper ([5]; 0.08 ppm in water): E (50-59)
- % Control at ppm against brown planthopper ([5]; 0.31 ppm in water): A (90-100)
- % Control at ppm against brown planthopper ([5]; 2.5 ppm in water): A (90-100)
- % Control at ppm against brown planthopper ([5]; 10 ppm in water): A (90-100)
- % Control at ppm against green leafhopper ([6]; 0.02 ppm in water): E (50-59)
- % Control at ppm against green leafhopper ([6]; 0.08 ppm in water): C (70-79)
- % Control at ppm against green leafhopper ([6]; 0.31 ppm in water): A (90-100)
- % Control at ppm against green leafhopper ([6]; 2.5 ppm in water): A (90-100)
- % Control at ppm against green leafhopper ([6]; 10 ppm in water): A (90-100)

Structure (SMILES): CC(c1ccc(C(Cl)(Cl)Cl)nc1)S(C)(=O)=NC#N (centres unmarked) [Compound 5, [1-(6-trichloromethylpyridin-3-yl)ethyl](methyl)-oxido-λ^4-sulfanylidenecyanamide]
- pest or weed control at 0.049 ppm [1]: 50 to 59%
- pest or weed control at 0.195 ppm [1]: 80 to 89%
- pest or weed control at 0.781 ppm [1]: 90 to 100%
- pest or weed control at 3.13 ppm [1]: 90 to 100%
- pest or weed control at 0.781 ppm [2]: < 50%
- pest or weed control at 3.125 ppm [2]: 80 to 89%

Structure (SMILES): CS(=O)(CCc1ccc(C(F)(F)F)nc1)=NC#N (centres unmarked) [Compound 6, [2-(6-trifluoromethylpyridin-3-yl)ethyl](methyl)-oxido-λ^4-sulfanylidenecyanamide]
- pest or weed control at 0.781 ppm ([1]; 0.781 ppm, 3 days after spray): 80 to 89%
- pest or weed control at 3.13 ppm ([1]; 3.13 ppm, 3 days after spray): 80 to 89%

Structure (SMILES): CS(=O)(Cc1ccc(C(F)F)nc1)=NC#N (centres unmarked) [Compound 7, [(6-difluoromethylpyridin-3-yl)methyl](methyl)-oxido-λ^4-sulfanylidenecyanamide]
- pest or weed control at 0.049 ppm ([1]; 0.049 ppm, 3 days after spray): < 50%
- pest or weed control at 0.195 ppm ([1]; 0.195 ppm, 3 days after spray): 80 to 89%
- pest or weed control at 0.781 ppm ([1]; 0.781 ppm, 3 days after spray): 90 to 100%
- pest or weed control at 3.13 ppm ([1]; 3.13 ppm, 3 days after spray): 90 to 100%

Structure (SMILES): CC(c1ccc(C(F)F)nc1)S(C)(=O)=NC#N (centres unmarked) [Compound 8, [1-(6-difluoromethylpyridin-3-yl)ethyl](methyl)-oxido-λ^4-sulfanylidenecyanamide]
- pest or weed control at 0.049 ppm ([1]; 0.049 ppm, 3 days after spray): 70 to 79%
- pest or weed control at 0.195 ppm ([1]; 0.195 ppm, 3 days after spray): 90 to 100%
- pest or weed control at 0.781 ppm ([1]; 0.781 ppm, 3 days after spray): 90 to 100%
- pest or weed control at 3.13 ppm ([1]; 3.13 ppm, 3 days after spray): 90 to 100%
- pest or weed control at 0.195 ppm ([2]; 0.195 ppm, 3 days after spray): < 50%
- pest or weed control at 0.781 ppm ([2]; 0.781 ppm, 3 days after spray): < 50%
- pest or weed control at 3.125 ppm ([2]; 3.125 ppm, 3 days after spray): < 50%

Structure (SMILES): CC(c1ccc(C(F)(F)C(F)(F)F)nc1)S(C)(=O)=NC#N (centres unmarked) [Compound 9, [1-(6-pentafluoroethylpyridin-3-yl)ethyl](methyl)-oxido-λ^4-sulfanylidenecyanamide]
- pest or weed control at 0.781 ppm ([1]; 0.781 ppm, 3 days after spray): 50 to 59%
- pest or weed control at 3.13 ppm ([1]; 3.13 ppm, 3 days after spray): 90 to 100%

Structure (SMILES): N#CN=S1(=O)CCCC1Cc1ccc(C(F)(F)F)nc1 (centres unmarked) [Compound 10, 2-[(6-trifluoromethylpyridin-3-yl)methyl]-1-oxidotetrahydro-1H-1λ^4-thien-1-ylidenecyanamide]
- pest or weed control at 0.781 ppm [1]: 60 to 69%
- pest or weed control at 3.13 ppm [1]: 70 to 79%

Structure (SMILES): CC(c1ccc(C(F)(F)F)nc1)S(C)(=O)=N[N+](=O)[O-] (centres unmarked) [Compound 11, 2-trifluoromethyl-5-(1-{methyl(oxido)[oxido(oxo)hydrazono]-λ^4-sulfanyl}ethyl)pyridine]
- pest or weed control at 0.049 ppm ([1]; 0.049 ppm, 3 days after spray): 60 to 69%
- pest or weed control at 0.195 ppm ([1]; 0.195 ppm, 3 days after spray): 60 to 69%
- pest or weed control at 0.781 ppm ([1]; 0.781 ppm, 3 days after spray): 90 to 100%
- pest or weed control at 3.13 ppm ([1]; 3.13 ppm, 3 days after spray): 90 to 100%
- pest or weed control at 0.195 ppm ([2]; 0.195 ppm, 3 days after spray): 70 to 79%
- pest or weed control at 0.781 ppm ([2]; 0.781 ppm, 3 days after spray): 80 to 89%
- pest or weed control at 3.125 ppm ([2]; 3.125 ppm, 3 days after spray): 90 to 100%

Structure (SMILES): CC(c1ccc(C(C)(F)F)nc1)S(C)(=O)=NC#N (centres unmarked) [Compound 12]
- pest or weed control at 0.781 ppm ([1]; 0.781 ppm, 3 days after spray): 90 to 100%
- pest or weed control at 3.13 ppm ([1]; 3.13 ppm, 3 days after spray): 90 to 100%
- pest or weed control at 0.781 ppm ([2]; 0.781 ppm, 3 days after spray): 50 to 59%
- pest or weed control at 3.125 ppm ([2]; 3.125 ppm, 3 days after spray): 80 to 89%
